Results on one compound are retold here after ChEMBL document CHEMBL1156449, “The nucleoside analog sangivamycin induces apoptotic cell death in breast carcinoma MCF7/adriamycin-resistant cells via protein kinase Cdelta and JNK activation” (J Biol Chem, 2007).

Calls of active or inactive are those of the source. No cut-off for these calls is given here.

Assay [1] deals with MCF/WT. As to the kind of experiment: Increase in p21CIP accumulation in human drug-sensitive MCF/WT cells at 0.3 uM after 48 hrs by immunoblot analysis. Type of assay: functional, cell-based. (In general: A western blot detects proteins with antibodies after separation by electrophoresis.)
The subject of the next assay is MCF. As to the kind of experiment: Induction of c-Jun expression in human drug-sensitive MCF cells at 0.3 uM. The format is functional, cell-based.
Assay [2] deals with MCF/WT. Kind of assay: Increase in Bcl-x/l levels in human drug-sensitive MCF/WT cells at 0.3 uM by immunoblot analysis. Type of assay: functional, cell-based.
Assay [3] is described as follows: Cell cycle arrest in human drug-sensitive MCF/WT cells assessed as accumulation at G0/G1 phase at 0.3 uM after 72 hrs by propidium fluorescence flow cytometry. Type of assay: functional, cell-based. (In flow cytometry, cells or beads pass a laser one at a time.)
The nature of assay [4]: Cell cycle arrest in human drug-sensitive MCF/WT cells assessed as accumulation at S phase at 0.3 uM after 48 hrs by propidium fluorescence flow cytometry. Type of assay: functional, cell-based.
Assay [5] can be described thus: Cell cycle arrest in human multidrug resistant MCF/ADR cells assessed as accumulation at S phase at 0.3 uM after 24 hrs by propidium fluorescence flow cytometry. Type of assay: functional, cell-based.
Assay [6] relates to MCF/ADR. Kind of assay: Inhibition of induction of apoptosis in human multidrug resistant MCF/ADR cells assessed as inhibition of cleavage of lamin A at 0.3 uM after 48 hrs by immunoblot analysis in presence of caspase 9-specific inhibitor. The format is functional, cell-based.
The subject of assay [7] is MCF/ADR. Kind of assay: Reduction in induction of apoptosis in human multidrug resistant MCF/ADR cells assessed as suppression of PARP cleavage at 0.3 uM after 48 hrs by immunoblot analysis in presence of rottlerin. The format is functional, cell-based.
The nature of assay [8]: Cell cycle arrest in human multidrug resistant MCF/ADR cells assessed as accumulation at sub G0/G1 phase at 0.3 uM after 48 hrs by propidium fluorescence flow cytometry. The format is functional, cell-based.
Assay [9] addresses Transcription factor Jun (Homo sapiens) (UniProt P05412). Kind of assay: Reduction in induction of c-Jun expression in human multidrug resistant MCF/ADR cells at 0.3 uM after 48 hrs by immunoblot analysis in presence of pan-specific caspase inhibitor. Type of assay: cell-based.
The subject of assay [10] is MCF/ADR. As to the kind of experiment: Increase in Bcl-2 levels in human multidrug resistant MCF/ADR cells at 0.3 uM by immunoblot analysis. Type of assay: functional, cell-based.
The target in assay [11] is Transcription factor Jun (Homo sapiens) (UniProt P05412). As to the kind of experiment: Reduction in induction of c-Jun expression in human multidrug resistant MCF/ADR cells at 0.3 uM after 48 hrs by immunoblot analysis in presence of caspase 9 inhibitor. Type of assay: cell-based.
The nature of assay [12]: Cell cycle arrest in human drug-sensitive MCF/WT cells assessed as accumulation at G0/G1 phase at 0.3 uM after 48 hrs by propidium fluorescence flow cytometry. The format is functional, cell-based.
In assay [13] the test system is MCF/WT. As to the kind of experiment: Cytostatic effect in human drug sensitive MCF/WT cells assessed as slight increase in number of viable cells at 30 nM after 6 days by MTT colorimetric assay. Type of assay: functional, cell-based. On the technique in general: Tetrazolium dyes change colour on reduction, which living cells bring about.
The target in assay [14] is T1, c-Jun N-terminal kinase, JNK (Homo sapiens) (UniProt P45983+P53779+P45984). As to the kind of experiment: Inhibition of induction of JNK phosphorylation in human multidrug resistant MCF/ADR cells at 0.3 uM after 48 hrs by immunocytochemical analysis in presence of rottlerin. Type of assay: cell-based.
For assay [15], the system named is MCF/ADR. As to the kind of experiment: Induction of apoptosis in human multidrug resistant MCF/ADR cells assessed as activation of caspase 9 at 0.3 uM by immunoblot analysis. Type of assay: functional, cell-based.
Assay [16] deals with MCF/WT. As to the kind of experiment: Induction of apoptosis in human drug-sensitive MCF/WT cells assessed as activation of caspase 7 at 0.3 uM by immunoblot analysis. The format is functional, cell-based.
The test system of another assay is MCF-10A. As to the kind of experiment: Induction of apoptosis in human MCF10A cells assessed as accumulation of PARP at 0.3 uM after 48 hrs by immunoblot analysis. The format is functional, cell-based.
Assay [17] deals with MCF/ADR. Kind of assay: Reduction in induction of apoptosis in human multidrug resistant MCF/ADR cells assessed as suppression of caspase 9 activation at 0.3 uM after 48 hrs by immunoblot analysis in presence of rottlerin. Type of assay: functional, cell-based.
The target in assay [18] is T1, c-Jun N-terminal kinase, JNK (Homo sapiens). As to the kind of experiment: Effect on mitochondrial localization of phosphorylated JNK with Bcl-x/l in human multidrug resistant MCF/ADR cells assessed as enhanced JNK activity by Mitotracker red staining. Type of assay: cell-based.
A short description of assay [19]: Cell cycle arrest in human multidrug resistant MCF/ADR cells assessed as accumulation at S phase at 0.3 uM after 72 hrs by propidium fluorescence flow cytometry. Type of assay: functional, cell-based.
Assay [20] deals with T1, c-Jun N-terminal kinase, JNK (Homo sapiens). Kind of assay: Induction of JNK activity in human multidrug resistant MCF/ADR cells assessed as mitochondrial localization of phosphorylated JNK with Bcl-x/l. The format is cell-based.

Sequence of Transcription factor Jun (Homo sapiens) (P05412 whole entry): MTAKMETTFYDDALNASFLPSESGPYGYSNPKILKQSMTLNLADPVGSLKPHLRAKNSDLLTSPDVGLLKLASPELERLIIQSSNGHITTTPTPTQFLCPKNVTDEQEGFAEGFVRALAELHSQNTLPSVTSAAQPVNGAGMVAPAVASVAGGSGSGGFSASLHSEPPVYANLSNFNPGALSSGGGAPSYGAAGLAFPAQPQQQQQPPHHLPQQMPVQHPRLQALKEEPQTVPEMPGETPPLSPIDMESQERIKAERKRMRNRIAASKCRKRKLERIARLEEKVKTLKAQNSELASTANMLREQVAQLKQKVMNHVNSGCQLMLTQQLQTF

As for `NC(=O)c1cn([C@@H]2O[C@H](CO)[C@@H](O)[C@H]2O)c2ncnc(N)c12` [SANGIVAMYCIN], the outcome in the assay on MCF/WT [1], with MCF, with MCF/WT [2], in the assay on MCF/ADR [6], in the assay with MCF/ADR [7] and in the assay on MCF/WT [13] was Active. The result (in [14]; with MCF/ADR [15]; in the assay with MCF/ADR [17]; in assay [18]; in assay [20]) was Active. Besides, the Activity came out at 57% in assay [3]; 9% in [4]; 25% in assay [5]; 40% in [8]; 61% in [12]; 25% in assay [19]. Besides, the result (in assay [9]; in the assay with MCF/ADR [10]; in [11]; in the assay on MCF/WT [16]; in the assay with MCF-10A) was inactive.
